ChEMBL document CHEMBL4732083, “Synthesis and anti-inflammatory activity of saponin derivatives of δ-oleanolic acid” (Eur J Med Chem, 2021)
Active and inactive are the calls of the source. No cut-off for these calls is given here.

Legend:
THP-1 [1] = assay: Antiinflammatory activity in human THP-1 cells assessed as reduction in LPS-induced TNF alpha secretion at 10 uM incubated for 12 hrs measured by ELISA; format: functional, cell-based
Mus musculus [2] = assay: Antiinflammatory activity against LPS/D-GalN-induced fulminant hepatic failure BALB/c mouse model assessed as inhibition of TNFalpha mRNA expression in liver at 200 mg/kg, IG once daily for 3 days by RT-PCR analysis; format: functional, organism-based; conditions: time 3.0 day
[3] = AUC (0 to t) in BALB/c mouse at 2 mg/kg, iv by LC/MS-MS analysis; format: ADME, organism-based; parameters: dose 2 mg/kg; conditions: in vivo
Mus musculus [4] = assay: Hepatoprotective activity in LPS/D-GalN-induced fulminant hepatic failure BALB/c mouse model assessed as inhibition of serum ALT level at 200 mg/kg, IG once daily for 3 days; format: functional, organism-based; conditions: time 3.0 day
Mus musculus [5] = assay: Hepatoprotective activity in LPS/D-GalN-induced fulminant hepatic failure BALB/c mouse model assessed as inhibition of serum AST level at 200 mg/kg, IG once daily for 3 days; format: functional, organism-based; conditions: time 3.0 day
THP-1 [6] = assay: Antiinflammatory activity in human THP-1 cells assessed as reduction in LPS-induced IL6 secretion at 10 uM incubated for 12 hrs measured by ELISA; format: functional, cell-based
Mus musculus [7] = assay: Hepatoprotective activity in LPS/D-GalN-induced fulminant hepatic failure BALB/c mouse model assessed as changes in liver histology at 200 mg/kg, IG once daily for 3 days by H/E staining based analysis; format: functional, organism-based; conditions: time 3.0 day
Homo sapiens [8] = organism: Homo sapiens; assay: Effect on recombinant AMPKalpha1beta1gamma1 (unknown origin) phosphorylation
[9] = Cmax in BALB/c mouse at 2 mg/kg, iv by LC/MS-MS analysis; format: ADME, organism-based; parameters: route intravenous, dose 2 mg/kg; conditions: in vivo
[10] = Cmax in BALB/c mouse at 10 mg/kg, po by LC/MS-MS analysis; format: ADME, organism-based; parameters: route oral, dose 10 mg/kg; conditions: in vivo
[11] = AUC (0 to infinity) in BALB/c mouse at 2 mg/kg, iv by LC/MS-MS analysis; format: ADME, organism-based; parameters: route intravenous, time infinity, dose 2 mg/kg; conditions: in vivo
[12] = Metabolic stability in mouse liver microsomes assessed as half life in presence of NADPH by LC-MS analysis; format: ADME, Microsome
Homo sapiens [13] = organism: Homo sapiens; assay: Effect on recombinant AMPK alpha2beta2gamma1 (unknown origin) phosphorylation
THP-1 [14] = assay: Cytotoxicity against human THP-1 cells assessed as reduction in cell viability at 1 to 10 uM; format: cell-based; conditions: thp-1, 10 µM
[15] = Half life in BALB/c mouse at 10 mg/kg, po by LC/MS-MS analysis; format: ADME, organism-based; conditions: in vivo
Mus musculus [16] = assay: Antiinflammatory activity against LPS/D-GalN-induced fulminant hepatic failure BALB/c mouse model assessed as inhibition of IL-6 mRNA expression in liver at 200 mg/kg, IG once daily for 3 days by RT-PCR analysis; format: functional, organism-based; conditions: time 3.0 day
[17] = Bioavailability in BALB/c mouse at 10 mg/kg, po by LC/MS-MS analysis; format: ADME, organism-based; conditions: in vivo
[18] = Metabolic stability in human liver microsomes assessed as half life in presence of NADPH by LC-MS analysis; format: ADME, Microsome
[19] = Half life in BALB/c mouse at 2 mg/kg, iv by LC/MS-MS analysis; format: ADME, organism-based; conditions: in vivo
[20] = AUC (0 to infinity) in BALB/c mouse at 10 mg/kg, po by LC/MS-MS analysis; format: ADME, organism-based; parameters: route oral, time infinity, dose 10 mg/kg; conditions: in vivo
[21] = AUC (0 to t) in BALB/c mouse at 10 mg/kg, po by LC/MS-MS analysis; format: ADME, organism-based; parameters: dose 10 mg/kg; conditions: in vivo
[22] = Tmax in BALB/c mouse at 10 mg/kg, po by LC/MS-MS analysis; format: ADME, organism-based; conditions: in vivo
[23] = Tmax in BALB/c mouse at 2 mg/kg, iv by LC/MS-MS analysis; format: ADME, organism-based; conditions: in vivo

AUC(0-t) [3]: 1350 ng·h/mL
Activity (Homo sapiens [8]): inactive
Cmax [9]: 4410 ng/mL
Cmax [10]: 1840 ng/mL
AUC(0-inf) [11]: 1360 ng·h/mL
half-life [12]: > 120 min
Activity (Homo sapiens [13]): inactive
half-life [15]: 21 min
bioavailability [17]: 24.7%
half-life [18]: > 120 min
half-life [19]: 21 min
AUC(0-inf) [20]: 1690 ng·h/mL
AUC(0-t) [21]: 1670 ng·h/mL
Tmax [22]: 25.2 min
Tmax [23]: 4.8 min
SMILES: CC1(C)CC[C@]2(C(=O)O)CC[C@]3(C)C(=C2C1)CC[C@@H]1[C@@]2(C)CC[C@H](O[C@@H]4OC[C@H](O)[C@H](O)[C@H]4O)C(C)(C)[C@@H]2CC[C@]13C
Activity (THP-1 [1]): Active
Activity (Mus musculus [2]): Active
Activity (Mus musculus [4]): Active
Activity (Mus musculus [5]): Active
Activity (THP-1 [6]): Active
Activity (Mus musculus [7]): Active
Activity (THP-1 [14]): Non-Toxic
Activity (Mus musculus [16]): Active
